Data set [1] can be described thus: Aqueous solubility determination, saturated solution shaken in water, LC. To be noted: slurried 24 hours, filtered. The format is physicochemical. As for the experimental part:
The aqueous solubility of the successfully reproduced salts is determined by shaking a saturated solution in water. The solubility at pH 7.4 is determined by shaking a saturated solution in a phosphate buffered system. The samples are prepared by the addition of a known amount of water (100-200 μl) and subsequent slurrying with the solid for 24 hours. All samples are then filtered using syringe filters to remove undissolved solids, and then the filtrates are diluted with methanol/acetonitrile (1:1 v/v). LC analysis of the samples is performed, and a calibration line is used for the determination of the solubilities.

The target in data set [2] is H1 histaminergic (Homo sapiens, UniProt P35367). To be noted: cited from earlier work.
Data set [3] deals with T1, 5-HT2C (Homo sapiens, UniProt P28335).
T1 sequence (P28335 33-458): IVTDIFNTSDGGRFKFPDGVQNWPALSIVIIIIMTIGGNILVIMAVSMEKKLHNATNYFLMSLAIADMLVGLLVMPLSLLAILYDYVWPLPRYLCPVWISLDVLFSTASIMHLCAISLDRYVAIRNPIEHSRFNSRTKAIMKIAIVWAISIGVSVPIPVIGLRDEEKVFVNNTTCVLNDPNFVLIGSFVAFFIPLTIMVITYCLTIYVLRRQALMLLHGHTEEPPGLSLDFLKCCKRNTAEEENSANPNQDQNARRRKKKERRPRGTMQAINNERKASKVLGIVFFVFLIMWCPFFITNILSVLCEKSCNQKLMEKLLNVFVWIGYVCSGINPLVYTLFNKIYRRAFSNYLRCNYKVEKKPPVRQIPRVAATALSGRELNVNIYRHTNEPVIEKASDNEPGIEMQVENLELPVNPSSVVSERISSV
Conditions: cited from earlier work.

Data set [4] deals with muscarinic. Conditions: cited from earlier work.
The conditions of data set [5]: free base form, cited from earlier work.

Read-outs that look alike come from different tables or passages of the source.

Sequence of H1 histaminergic (P35367 whole entry): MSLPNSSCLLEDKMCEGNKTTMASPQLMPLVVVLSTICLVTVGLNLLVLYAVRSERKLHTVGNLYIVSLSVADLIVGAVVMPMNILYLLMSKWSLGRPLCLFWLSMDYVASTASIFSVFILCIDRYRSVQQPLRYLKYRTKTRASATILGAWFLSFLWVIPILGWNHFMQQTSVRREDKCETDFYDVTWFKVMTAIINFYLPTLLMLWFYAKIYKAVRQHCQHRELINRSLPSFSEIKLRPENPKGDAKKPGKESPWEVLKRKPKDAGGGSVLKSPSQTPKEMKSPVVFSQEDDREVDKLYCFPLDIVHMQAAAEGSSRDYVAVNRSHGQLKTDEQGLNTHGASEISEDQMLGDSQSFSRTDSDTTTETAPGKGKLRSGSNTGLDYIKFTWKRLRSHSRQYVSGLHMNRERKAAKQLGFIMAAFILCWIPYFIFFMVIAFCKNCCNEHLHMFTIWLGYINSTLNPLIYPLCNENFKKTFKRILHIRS

The term Aqueous Solubility denotes the dissolved amount per volume that the medium holds. In the case of `CC(C)(C)c1ccc(S(=O)(=O)O)cc1.CN1CCN2c3c(cccc31)[C@@H]1CN(CCCC(=O)c3ccc(F)cc3)CC[C@@H]12` [4-t-butylbenzenesulfonate salt, lumateperone 4-tert-butylbenzenesulfonate salt], the “Aqueous Solubility” value in data set [1] was 770 µg/mL.

`CCCCCCCCc1ccc(S(=O)(=O)O)cc1.CN1CCN2c3c(cccc31)[C@@H]1CN(CCCC(=O)c3ccc(F)cc3)CC[C@@H]12` [4-octylbenzenesulfonate salt, lumateperone 4-octylbenzenesulfonate salt]: the “Aqueous Solubility” value in data set [1] stood at 6 µg/mL. Against the preceding compound, the Aqueous Solubility is about 130-fold lower.

With `CCCCCCCS(=O)(=O)O.CN1CCN2c3c(cccc31)C1CN(CCCC(=O)c3ccc(F)cc3)CCC12` (stereo not shown) [Example 9, lumateperone heptane-1-sulfonic salt], in data set [1], the “Aqueous Solubility” value came to 4300 µg/mL. Against the preceding compound, the Aqueous Solubility is about 720-fold higher.

Regarding `CCCCCS(=O)(=O)O.CN1CCN2c3c(cccc31)C1CN(CCCC(=O)c3ccc(F)cc3)CCC12` (stereo not shown) [Example 8, lumateperone pentane-1-sulfonic salt], the “Aqueous Solubility” value in data set [1] came to 18770 µg/mL. This Aqueous Solubility is about 4.4-fold higher than that of the compound before.

Take `CN1CCN2c3c(cccc31)[C@@H]1CN(CCCC(=O)c3ccc(F)cc3)CC[C@@H]12` [Lumateperone, 4-((6bR,10aS)-3-methyl-2,3,6b,9,10,10a-hexahydro-1H-pyrido[3′,4′: 4,5]pyrrolo[1,2,3-de]quinoxalin-8(7H)-yl)-1-(4-fluorophenyl)-1-butanone]: the “binding to H1 histaminergic receptors” value in data set [2] was “negligible binding”. For the same compound, the “binding to 5-HT2C receptors” value in data set [3] is listed as “negligible binding”. The “binding to muscarinic receptors” value in data set [4] is given as “negligible binding”. For the same compound, the “aqueous solubility of free base (in words)” value is on record as “poor aqueous solubility” in data set [5] (listed as ITI-007) and “very low water-solubility” in data set [5] (listed as Lumateperone free base).

As to `CCCc1ccc(S(=O)(=O)O)cc1.CN1CCN2c3c(cccc31)[C@@H]1CN(CCCC(=O)c3ccc(F)cc3)CC[C@@H]12` [Example 4, lumateperone 4-propylbenzenesulfonate salt], the “Aqueous Solubility” value in data set [1] is 1620 µg/mL.

These data come from patent publication US20260034124A1, “NOVEL SALTS AND CRYSTALS” (INTRA-CELLULAR THERAPIES, INC., priority 2022, published 2026).
